Measured values: US20150212068A1, “Cholyl-L-Lysyl-Fluorescein Assay” (Novassay SA, priority 2012, published 2015)
Entries after “also recorded” stand apart in the source; their conditions may differ.

Legend:
[1] = Stability of CLF-spiked serum pools stored 48 hrs at −20° C., 4° C. and 37° C., CLF ELISA; format: in vitro ADME, human; settings: for % difference (4° C. from −20° C.) / % difference (37° C. from −20° C.) / observed 4° C. / observed 37° C. / observed −20° C.: serum pool; for observed 4° C.: 48 hrs at 4° C.; for observed 37° C.: 48 hrs at 37° C.; for observed −20° C.: 48 hrs at −20° C.
Procedure: (§1) These conditions were used for all assays described in Phase 2a (above) and Phase 2b (below). See Appendix B and C for buffer and conjugate formulations respectively: • Add 25 μl/well of sample or standard (0-1000 ng/ml CLF in Buffer #24) to the wells of a streptavidin-coated microtitre plate (NovAssay, F2SAC). • Add 100 μl/well of fluorescein-biotin (Sigma B9431) at 20 ng/ml in Buffer #24+0.2% w/v ANS (Sigma 10417). • Add 100 μl/well of anti-fluorescein HRP (NovAssay, DV047/17-3) at 100 ng/ml in Buffer #24. • Incubate the plate for 30 minutes at room temperature. • Wash the plate 3 times with 800 μl/well Buffer #29 and tap the plate dry. • Add 100 μl/well of SureBlue Reserve TMB Substrate (KPL) and incubate the plate for 10 minutes at room temperature. • Stop the substrate reaction by adding 100 μl/well of 1M HCl and read the absorbance at 450 nm wavelength (ThermoFisher Scientific, Multiskan FC).
The stability study (−20° C., 4° C. and 37° C.) involved preparation of 3 serum pools spiked with 31.25 ng/ml, 125 ng/ml and 250 ng/ml CLF (aliquots of which were then stored at the 3 temperatures). Storage time was 48 hrs.

[2] = Quantification of CLF in 5 human plasma samples by HPLC-MS/MS with calibration curves from SS CLF-MetOH and SS CLF-EtOH; format: physicochemical
Procedure: Two working solutions of CLF were prepared. […] Five human plasma samples, spiked with CLF from both working solutions, were prepared for HPLC-MS/MS analysis. These samples (named S1, S2, S3, S4 and S5) were thawed at room temperature, extemporaneously, and 100 μl of each were transferred in appropriate tubes. The HPLC-MS/MS analysis was conducted with two calibration curves, constituted with 7 single points (non zero). The first one was prepared by serial dilutions in methanol of the working solution named SS CLF-MetOH. The second one was prepared by serial dilutions in methanol of the working solution named SS CLF-EtOH. Both working solutions were centrifuged 5 min at 3000 g before dilutions. These dilutions of CLF in methanol allowed obtaining the 10× standard solutions used for standard sample preparation. Then, calibration curves were prepared by adding 10 μl of the concentrated standard solutions to 90 μl of free-drug human plasma. The final concentrations of calibrators were of 1000, 500, 250, 100, 25, 5 and 1 ng/ml. […] The contents of CLF were determined in 5 human plasma samples provided, according to the standard curve generated from both separate working solutions. […] The content of CLF was semi-quantified using data previously obtained. The UV response at 254 nm was used for semi-quantification. […] The differences between both quantifications were also evaluated as follows: […]

[3] = Stability of CLF-spiked serum samples after 12 day storage at 2-8° C., CLF ELISA; format: in vitro ADME, human
Procedure: as §1
Sample drift was assessed by using two sera spiked with CLF to 4 levels (62.5, 125, 250 and 500 ng/ml). Each of the samples were added to streptavidin coated wells (in duplicate) soon after the addition of the standards (time 0, in columns 5&6)); after 5 minutes the samples were added to columns 7&8; “5 minute” time point” 5 minutes later in columns 9&10 (“10 minute time point” and 5 minutes later in columns 11&12 (“15 minute time point”). The samples used were prepared 12 days prior to the experiment and were kept at 2-8° C. In addition, some other serum samples that were spiked with CLF at the same time (12 days prior to the assay) were also measured in order to determine the stability of CLF (note: The data obtained are the results of 2 variables (instability of CLF and the recovery) and thus represent a “worst case scenario”.
The level of instability (after 12 day storage at 2-8° C.) was calculated by comparing the results obtained with the expected results.

[4] = 12 day storage at 2-8° C., pool1, Expected 125 ng/ml
[5] = 12 day storage at 2-8° C., pool2, Expected 31.25 ng/ml
[6] = 12 day storage at 2-8° C., pool3, Expected 500 ng/ml
[7] = 12 day storage at 2-8° C., sample 5876, Expected 1000 ng/ml
[8] = 12 day storage at 2-8° C., sample 5881, Expected 1000 ng/ml
[9] = 12 day storage at 2-8° C., sample 5883, Expected 500 ng/ml
[10] = 12 day storage at 2-8° C., sample 5883, Expected 1000 ng/ml
[11] = 12 day storage at 2-8° C., sample 5884, Expected 62.5 ng/ml
[12] = 12 day storage at 2-8° C., sample 5884, Expected 125 ng/ml
[13] = 12 day storage at 2-8° C., sample 5884, Expected 250 ng/ml
[14] = 12 day storage at 2-8° C., sample 5884, Expected 500 ng/ml
[15] = 12 day storage at 2-8° C., sample 5885, Expected 62.5 ng/ml
[16] = 12 day storage at 2-8° C., sample 5885, Expected 125 ng/ml
[17] = 12 day storage at 2-8° C., sample 5885, Expected 250 ng/ml
[18] = 12 day storage at 2-8° C., sample 5885, Expected 500 ng/ml
[19] = 12 day storage at 2-8° C., sample 5885, Expected 1000 ng/ml

## CC(CCC(=O)NC(CCCCNC(=S)Nc1ccc(-c2c3ccc(=O)cc-3oc3cc(O)ccc23)c(C(=O)O)c1)C(=O)O)C1CCC2C3C(O)CC4CC(O)CCC4(C)C3CC(O)C12C [CLF, Cholyl-L-Lysyl-Fluorescein]
[1]; at 4 C., should avoid higher temperatures e.g. 37 C.
  time spiked samples can be stored: 48 hrs at 4 C. but should avoid higher
[1]; expected 31.25 ng/ml, 48 hrs
  % difference (4° C. from −20° C.): −8%
  % difference (37° C. from −20° C.): −45%
[1]; expected 31.25 ng/ml
  observed 4° C.: 34 ng/mL
  observed 37° C.: 20 ng/mL
  observed −20° C.: 37 ng/mL
[1]; expected 125 ng/ml, 48 hrs
  % difference (4° C. from −20° C.): −2%
  % difference (37° C. from −20° C.): −20%
[1]; expected 125 ng/ml
  observed 4° C.: 107 ng/mL
  observed 37° C.: 88 ng/mL
  observed −20° C.: 110 ng/mL
[1]; expected 250 ng/ml, 48 hrs
  % difference (4° C. from −20° C.): −12%
[1]; expected 250 ng/ml
  observed 4° C.: 211 ng/mL
  observed 37° C.: >off scale
  observed −20° C.: 240 ng/mL
[1]; serum pools spiked with CLF, 48 hrs, 4° C. vs 37° C. (reference −20° C.)
  storage stability of spiked samples: can be stored for 48 hrs at 4 °C but should avoid higher temperatures
[2]; EtOH:H2O:NaOH (50%) 500:1000:30, both immunoassay and HPLC methodologies
  quantitative value of CLF prepared in methanol (100%) relative to CLF prepared in aqueous ethanol (higher by): approximately 40%
[2]; isomeric form of SS CLF-EtOH not detected in standard samples in human plasma
  tautomerization of CLF: reversible and depends on the pH of the medium; also recorded: reversible and is dependent on the pH of the medium
[3]; 12 day storage at 2-8° C., mean of all samples
  Difference, mean: −27%
[3]; [4]
  Difference: −39%
  observed: 76 ng/mL
[3]; [5]
  Difference: −14%
  observed: 27 ng/mL
[3]; [6]
  Difference: −27%
  observed: 365 ng/mL
[3]; [7]
  Difference: −24%
  observed: 756 ng/mL
[3]; [8]
  Difference: −18%
  observed: 820 ng/mL
[3]; [9]
  Difference: −25%
  observed: 375 ng/mL
[3]; [10]
  Difference: −10%
  observed: 903 ng/mL
[3]; [11]
  Difference: −29%
  observed: 44 ng/mL
[3]; [12]
  Difference: −36%
  observed: 80 ng/mL
[3]; [13]
  Difference: −39%
  observed: 153 ng/mL
[3]; [14]
  Difference: −32%
  observed: 340 ng/mL
[3]; [15]
  Difference: −27%
  observed: 46 ng/mL
[3]; [16]
  Difference: −33%
  observed: 84 ng/mL
[3]; [17]
  Difference: −29%
  observed: 177 ng/mL
[3]; [18]
  Difference: −24%
  observed: 379 ng/mL
[3]; [19]
  Difference: −20%
  observed: 804 ng/mL
[3]; samples kept at 2-8 C. for 12 days
  reduction in measured CLF (mean): 27%) occurs when samples are kept
[3]; spiked serum samples kept at 2-8° C. for 12 days, vs expected
  reduction in measured CLF (mean): 27%
